Results on 14 compounds are retold here after paper PMC4793209 (2016).

Common to all, as to experiment: in-line probing
Experiment [1] deals with 108 yjdF RNA (WT, B. subtilis) (RNA, riboswitch) GGUAUAUGGUAAAGAAUGAAAAAACACGAUUCGGUUGGUAGUCCGGAUGCAUGAUUGAGAAUGUCAGUAACCUUCCCCUCCUCGGGAUGUCCAUCAUUCUUUAAUAUCU
The following applies: 100 mM KCl, 20 mM MgCl2, 50 mM Tris-HCl pH 8.3, 25 °C.

Experiment [2] deals with 107 yjdF RNA (B. endophyticus) (RNA, riboswitch) GGUAUAUGAAAUGAAAAAACACAAUUCGGUUGGUAGUCCGGAUGCAUCAUAAUAAAUGAAUGUCAGUAGCCUUCCCCUCCUCGGGAUGUCCAUCAUUUCAUAGUAUUUU
The following applies: 100 mM KCl, 20 mM MgCl2; 50 mM Tris-HCl pH 8.3, 25 °C.

In experiment [3] the test system is 108 yjdF M3 (RNA, riboswitch) GGUAUAUGGUAAAGAAUGAAAAAACACGAUUCGGUUGGUCGUCCGGAUGCAUGAUUGAGAAUGUCAGUAACCUUCCCCUCCUCGGGAUGUCCAUCAUUCUUUAAUAUCU
The following applies: 100 mM KCl, 20 mM MgCl2; 50 mM Tris-HCl pH 8.3, 25 °C.

The subject of experiment [4] is 108 yjdF M1 (RNA, riboswitch) GGUAUAUGGUAAACUAUGAAAAAACACGAUUCGGUUGGUAGUCCGGAUGCAUGAUUGAGAAUGUCAGUAACCUUCCCCUCCUCGGGAUGUCCAUCAUUCUUUAAUAUCU
The following applies: 100 mM KCl, 20 mM MgCl2; 50 mM Tris-HCl pH 8.3, 25 °C; affinity reduced against WT.

The subject of experiment [5] is 108 yjdF M2 (RNA, riboswitch) GGUAUAUGGUAAACUAUGAAAAAACACGAUUCGGUUGGUAGUCCGGAUGCAUGAUUGAGAAUGUCAGUAACCUUCCCCUCCUCGGGAUGUCCAUCAUAGUUUAAUAUCU
The following applies: 100 mM KCl, 20 mM MgCl2; 50 mM Tris-HCl pH 8.3, 25 °C; near WT affinity.

Where [6] appears, read: 36-48 h, RNA <5 nM, apparent, 10 µM or poorer.
Setting [7] is: apparent, unit in unseen head of Table S1.

With `CC(=O)Oc1ccccc1C(=O)O`, the KD in experiment [1] (setting [6]) is greater than 10000 nM. For `CCn1cc(C(=O)O)c(=O)c2ccc(C)nc21`, in experiment [1] (36-48 h, RNA <5 nM, apparent), the KD is reported as ~ 1 µM. For the compound `COc1ccc2c(c[n+](C)c3c4cc5c(cc4ccc23)OCO5)c1OC`, the binding result in experiment [2] is reported as “yes”. Besides, the KD in experiment [1] (36-48 h, RNA <5 nM, apparent) stood at 2.5 nM. For the compound `C[C@H](CCC(=O)NCCS(=O)(=O)O)[C@H]1CC[C@H]2[C@@H]3CC[C@@H]4C[C@H](O)CC[C@]4(C)[C@H]3C[C@H](O)[C@]12C`, in experiment [1] (setting [7]), the KD was greater than 100.

`C[C@H](CCC(=O)O)[C@H]1CC[C@H]2[C@@H]3CC[C@@H]4C[C@H](O)CC[C@]4(C)[C@H]3C[C@H](O)[C@]12C`: in experiment [1] (setting [7]), the KD is greater than 100.

For the compound `C[C@H](CCC(=O)O)[C@H]1CC[C@H]2[C@@H]3[C@H](O)C[C@@H]4C[C@H](O)CC[C@]4(C)[C@H]3CC[C@]12C`, the KD in experiment [1] (setting [7]) is greater than 100.

As to `C[n+]1cc2c3c(ccc2c2ccc4cc5c(cc4c21)OCO5)OCO3`, the KD in experiment [1] (36-48 h, RNA <5 nM, apparent) is 4.2 nM.

For the compound `Cc1cc(N)c2ccccc2[n+]1CCCCCCCCCC[n+]1c(C)cc(N)c2ccccc21`, the binding result in experiment [1] (apparent) is reported as “yes”. Regarding `Cc1cc2nc3c(=O)[nH]c(=O)nc-3n(C)c2cc1C`, in experiment [1] (36-48 h, RNA <5 nM, apparent), the KD came to 800 nM. `Cc1cc2nc3c(=O)[nH]c(=O)nc-3n(C[C@H](O)[C@H](O)[C@H](O)CO)c2cc1C`: the binding entry in experiment [3] is listed as “no”; in experiment [1] (riboflavin 0-10 µM, weaker than proflavine) it was “yes”. `Cc1nccc2c1[nH]c1ccccc12`: the binding result in experiment [1] (apparent) is “yes”.

Regarding `Nc1ccc2cc3ccc(N)cc3nc2c1`, the binding entry is recorded as “weak” in experiment [4], “yes” in experiment [5] and “no” in experiment [3]. Besides, the KD in experiment [1] (36-48 h, RNA <5 nM, apparent) is on record as 6.1 nM. As for `O=C(O)/C=C/c1ccc(O)c(O)c1`, the KD in experiment [1] (setting [6]) was greater than 10000 nM. On the same count and under the same terms, next, `O=C(O)/C=C/c1ccccc1`: greater than 10000 nM.
